Where two headings read alike, the source gives them in different places.
Tests used:
METTL3/METTL14 = METTL3/METTL14 (Homo sapiens, UniProt Q86U44); assay: METTL3-14 standard enzyme assay (3H-SAM flashplate scintillation); format: biochemical; details: METTL3/METTL14 2.5 nM, RNA 100 nM, 3H-SAM 100 nM, 30 min
Procedure, shortened: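 Radiometric methylation readout: biotinylated RNA substrate UCUGGACUAAA and 3H-SAM, each 100 nM final, reacted 30 min at ambient temperature with 2.5 nM enzyme complex after 5 min compound preincubation (HEPES pH 7.5 buffer, KCl, MgCl2, DTT). Excess unlabelled SAM (15 μM) stopped reactions before streptavidin flashplate capture.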

MOLM-13 cells = assay: MOLM-13 96 Hour cell proliferation assay (Cell Titer-Glo); format: cell-based; details: Homo sapiens
Protocol: MOLM-13 96 Hour Cell Proliferation Assay
MOLM-13 (DSMZ) cells were seeded at 600 cells per well in a volume of 44 μL in a Greiner Bio-One CELLSTAR™ 384 Well Polystyrene Cell Culture clear bottom microplate in RPMI 1640 media containing 10% fetal bovine serum using a Multidrop Combi (ThermoFisher Scientific). Cells were incubated overnight at 37° C. in a humidified tissue culture incubator. To prevent evaporation or to reduce edge effect, add 50 μL or more H2O to an empty plate, cover, and place on top of the cell plates. The Mosquito® HTS Liquid Handler was used to make a compound/media intermediate plate by aliquoting 1 μL of compound from the initial compound dilution plate (concentrations ranging from 10.0 mM to 38.0 nM in 100% DMSO) into Bio-One 384-well polypropylene conical bottom microplate containing 49 μL of media containing the appropriate serum (50-fold dilution, 2% DMSO, compound concentrations ranging from 200.0 μM and […]). The Apricot liquid handling system was used to transfer 6.2 μL compounds from the intermediate plate into the seeding plate containing 44 μL cells (8-fold dilution spanning concentrations 25.0 μM to […], 0.25% DMSO final), and placed in a humidified tissue culture incubator at 37° C. After 96 hours, 25 μL of Cell Titer-Glo reagent (Promega) was added to each well using an Integra liquid handling system. The plate was protected from light using TopSeal-A (Black) film over the entire plate, added White Bottom seal film on the bottom of the entire plate for a better reading on the Envision, and placed on an IKA plate shaker for at 300 rpm for 10 minutes at room temperature. The plate was read on an EnVision plate reader (Perkin Elmer) using the Ultra Sensitive Luminescence protocol. Data analysis was performed by normalizing the raw luminescence units to an average of the positive control values for staurosporine (100% cell death) and the negative control values for DMSO (0% cell death). An IC50 was calculated using a 4-parameter logistic nonlinear regression model in GraphPad Prism.

[1] = test system: m^6 A in cellular mRNA of MOLM-13 cells; assay: m^6 A-mRNA LC-MS/MS assay (m^6 A cellular assay); format: cell-based; details: Homo sapiens, 24 hours incubation, LC-MS/MS of m^6 A/A in mRNA
Protocol: m^6 A-mRNA LC-MS/MS Assay
5×10^6 MOLM-13 (DSMZ) cells were seeded into 10 cm dishes in RPMI 1640 media containing 10% fetal bovine serum and placed in a humidified tissue culture incubator at 37° C. overnight. Compounds were resuspended in 100% DMSO and dosed into each dish at a fixed concentration to comprise an 8-point dose response with a 4-fold serial dilution ranging from 25 μM to 1.5 nM in 0.25% DMSO final and allowed to incubate for 24 hours in a humidified tissue culture incubator at 37° C. Cells were harvested by centrifugation followed by mRNA extraction using DTRECT Dynabeads mRNA DTRECT kit (Life Technologies). mRNA was quantified on NanoDrop spectrophotometer (Thermo Fisher Scientific) and digested into single nucleosides using Nucleoside Digestion Mix (New England Biolabs). Nucleosides are quantified with retention time on a BEH […] column (Waters) and the nucleoside-to-base ion mass transition of 282.1-150.1 (m^6 A) and 268-136 (A) on an API 6500+ triple quadrupole mass spectrometer. Quantification is performed in comparison with the standard curve, obtained from pure nucleoside standards (Selleck Chemicals) running with the same batch of samples. Percentage m^6 A in cellular mRNA is calculated as 100*(m^6 A/A).

PRMT5-MEP50 = PRMT5-MEP50 (Homo sapiens, UniProt O14744); assay: PRMT5 assay (3H-SAM flashplate scintillation); format: biochemical; details: PRMT5-MEP50 2.5 nM, histone H4 peptide 100 nM, 3H-SAM 250 nM, 60 min
Procedure, shortened: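 Radiometric methyltransferase read-out: after 60 min reaction, excess unlabelled SAM (15 μM) stops turnover and biotinylated H4 peptide (100 nM) carrying 3H-methyl from 250 nM 3H-SAM is captured on streptavidin flashplates (2 h, 25° C) for scintillation counting. Enzyme, 2.5 nM PRMT5-MEP50, was preincubated 5 min with compound in pH 8.0 Tris buffer with DTT and Tween.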

METTL16 = target: T1, METTL16 (Homo sapiens, UniProt Q86W50); assay: METTL16 assay (3H-SAM flashplate scintillation); format: biochemical; details: METTL16 100 nM, RNA 50 nM, 3H-SAM 200 nM, SAM 800 nM, 20 min
T1 sequence (Q86W50 1-562): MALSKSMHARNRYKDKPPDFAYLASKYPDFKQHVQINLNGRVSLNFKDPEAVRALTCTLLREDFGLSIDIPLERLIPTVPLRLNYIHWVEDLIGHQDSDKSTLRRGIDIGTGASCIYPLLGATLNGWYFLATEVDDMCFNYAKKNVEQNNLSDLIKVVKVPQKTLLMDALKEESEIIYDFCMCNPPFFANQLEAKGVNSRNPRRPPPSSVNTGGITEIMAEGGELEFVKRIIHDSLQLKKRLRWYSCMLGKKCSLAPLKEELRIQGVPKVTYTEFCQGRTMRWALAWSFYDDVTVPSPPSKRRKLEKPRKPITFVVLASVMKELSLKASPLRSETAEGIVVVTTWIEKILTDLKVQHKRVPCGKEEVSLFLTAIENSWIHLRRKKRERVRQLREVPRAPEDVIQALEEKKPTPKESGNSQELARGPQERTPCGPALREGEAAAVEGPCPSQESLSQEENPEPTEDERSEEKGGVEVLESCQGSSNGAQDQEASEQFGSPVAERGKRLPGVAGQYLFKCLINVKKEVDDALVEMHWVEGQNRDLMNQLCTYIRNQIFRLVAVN
Procedure, shortened: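 Radiometric methyltransferase reaction at ambient temperature in 20 mM HEPES pH 7.5, 50 mM KCl, 1 mM DTT, with 100 nM enzyme preincubated 5 min with compound. It was started with 50 nM 3′-biotinylated RNA, 200 nM 3H-SAM plus 800 nM cold SAM, run 20 min, then quenched with excess cold SAM. Product was captured on streptavidin flashplates and scintillation-counted.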

METTL1/WDR4 = METTL1/WDR4 (Homo sapiens, UniProt Q9UBP6); assay: METTL1 assay (3H-SAM flashplate scintillation); format: biochemical
Procedure, shortened: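 Radiometric methyltransfer by METTL1/WDR4 (6.25 nM f.c., 5 min preincubation) at ambient temperature in HEPES pH 7.5, KCl, MgCl2, DTT; started with 25 nM 3′-biotinylated RNA and 60 nM 3H-SAM, run 20 min, quenched with 15 μM cold SAM. Product captured on streptavidin flashplates (2 h, 25° C), counted by scintillation.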

[2] = METTL1/WDR4 6.25 nM, RNA 25 nM, 3H-SAM 60 nM, 20 min, read-out: METTL1 IC50

Sequence of METTL1/WDR4 (Q9UBP6 whole entry, species assumed): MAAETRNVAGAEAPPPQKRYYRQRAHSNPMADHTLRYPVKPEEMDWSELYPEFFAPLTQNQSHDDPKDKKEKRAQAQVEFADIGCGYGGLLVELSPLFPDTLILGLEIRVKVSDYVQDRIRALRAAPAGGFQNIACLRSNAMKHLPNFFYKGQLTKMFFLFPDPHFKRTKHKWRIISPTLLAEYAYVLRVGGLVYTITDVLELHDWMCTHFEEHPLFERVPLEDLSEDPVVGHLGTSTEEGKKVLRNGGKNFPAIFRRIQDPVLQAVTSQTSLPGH
Sequence of METTL1/WDR4 (P57081 whole entry partner, species assumed): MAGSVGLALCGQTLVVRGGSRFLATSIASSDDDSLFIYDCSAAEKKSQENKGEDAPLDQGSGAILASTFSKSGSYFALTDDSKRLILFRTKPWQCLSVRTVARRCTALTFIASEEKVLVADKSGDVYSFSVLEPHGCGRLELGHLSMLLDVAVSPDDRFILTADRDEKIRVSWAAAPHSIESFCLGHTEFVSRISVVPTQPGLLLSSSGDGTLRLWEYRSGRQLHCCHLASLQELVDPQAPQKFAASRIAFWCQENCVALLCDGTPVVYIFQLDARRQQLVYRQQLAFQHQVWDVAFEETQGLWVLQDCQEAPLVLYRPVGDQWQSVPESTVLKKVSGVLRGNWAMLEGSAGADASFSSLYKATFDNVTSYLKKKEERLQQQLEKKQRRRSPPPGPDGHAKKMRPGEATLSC
Sequence of METTL3/METTL14 (Q86U44 whole entry, species assumed): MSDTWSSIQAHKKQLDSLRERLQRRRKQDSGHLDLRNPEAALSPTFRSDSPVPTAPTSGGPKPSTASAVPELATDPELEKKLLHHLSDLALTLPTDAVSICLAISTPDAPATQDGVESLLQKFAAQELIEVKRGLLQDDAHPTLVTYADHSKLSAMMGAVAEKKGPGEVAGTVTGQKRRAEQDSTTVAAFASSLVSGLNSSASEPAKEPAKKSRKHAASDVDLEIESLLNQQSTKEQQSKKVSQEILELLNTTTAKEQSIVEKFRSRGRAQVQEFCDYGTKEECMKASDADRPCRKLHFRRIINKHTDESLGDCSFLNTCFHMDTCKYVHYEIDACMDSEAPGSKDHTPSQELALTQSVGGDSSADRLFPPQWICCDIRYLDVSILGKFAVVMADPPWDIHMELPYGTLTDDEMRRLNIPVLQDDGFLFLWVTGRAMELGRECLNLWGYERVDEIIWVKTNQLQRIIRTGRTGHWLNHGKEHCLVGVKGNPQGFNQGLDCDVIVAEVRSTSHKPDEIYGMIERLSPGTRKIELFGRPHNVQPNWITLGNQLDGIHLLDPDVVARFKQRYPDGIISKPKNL
Sequence of METTL3/METTL14 (Q9HCE5 whole entry partner, species assumed): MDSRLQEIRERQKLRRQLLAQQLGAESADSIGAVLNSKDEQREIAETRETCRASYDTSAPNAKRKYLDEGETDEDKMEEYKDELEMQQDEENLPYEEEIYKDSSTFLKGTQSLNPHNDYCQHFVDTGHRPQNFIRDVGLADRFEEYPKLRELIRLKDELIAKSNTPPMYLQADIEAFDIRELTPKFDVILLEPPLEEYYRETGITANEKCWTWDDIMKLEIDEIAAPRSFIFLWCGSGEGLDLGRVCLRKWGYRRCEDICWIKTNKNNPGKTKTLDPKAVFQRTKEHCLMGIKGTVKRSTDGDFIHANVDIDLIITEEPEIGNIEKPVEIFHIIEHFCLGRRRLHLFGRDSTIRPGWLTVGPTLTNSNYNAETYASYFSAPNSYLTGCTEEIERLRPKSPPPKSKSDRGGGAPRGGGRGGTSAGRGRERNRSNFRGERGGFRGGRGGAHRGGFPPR
Sequence of PRMT5-MEP50 (O14744 whole entry): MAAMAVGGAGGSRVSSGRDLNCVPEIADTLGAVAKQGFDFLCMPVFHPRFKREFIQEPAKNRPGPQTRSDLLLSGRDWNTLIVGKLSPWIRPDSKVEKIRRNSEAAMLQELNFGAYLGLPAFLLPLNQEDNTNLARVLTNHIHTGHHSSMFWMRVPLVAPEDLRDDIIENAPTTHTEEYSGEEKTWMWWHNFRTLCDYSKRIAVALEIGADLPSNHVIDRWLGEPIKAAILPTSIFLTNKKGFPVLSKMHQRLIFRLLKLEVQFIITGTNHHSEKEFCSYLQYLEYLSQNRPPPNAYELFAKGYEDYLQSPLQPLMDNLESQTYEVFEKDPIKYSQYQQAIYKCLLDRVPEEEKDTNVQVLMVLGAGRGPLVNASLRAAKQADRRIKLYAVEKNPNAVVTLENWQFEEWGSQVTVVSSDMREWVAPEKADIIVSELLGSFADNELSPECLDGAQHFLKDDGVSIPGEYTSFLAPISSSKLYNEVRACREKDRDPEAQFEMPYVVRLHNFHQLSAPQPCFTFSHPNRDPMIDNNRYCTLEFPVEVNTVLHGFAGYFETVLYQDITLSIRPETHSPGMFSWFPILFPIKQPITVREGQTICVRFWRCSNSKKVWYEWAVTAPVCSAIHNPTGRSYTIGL
Sequence of PRMT5-MEP50 (Q9BQA1 whole entry partner): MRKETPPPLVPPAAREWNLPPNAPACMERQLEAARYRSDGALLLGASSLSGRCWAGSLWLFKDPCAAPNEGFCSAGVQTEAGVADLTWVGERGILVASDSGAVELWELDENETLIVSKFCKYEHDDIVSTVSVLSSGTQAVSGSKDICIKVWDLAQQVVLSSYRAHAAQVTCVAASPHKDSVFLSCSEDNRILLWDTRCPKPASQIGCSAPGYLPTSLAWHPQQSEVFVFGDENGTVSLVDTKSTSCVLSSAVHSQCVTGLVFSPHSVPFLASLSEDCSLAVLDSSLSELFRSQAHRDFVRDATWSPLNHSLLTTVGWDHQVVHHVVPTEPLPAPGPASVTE

Row | Structure (SMILES) | IC50 (METTL3/METTL14) [nM] | IC50 (MOLM-13 cells) [nM] | IC50 [1] [nM] | IC50 (PRMT5-MEP50) [nM] | IC50 (METTL16) [nM] | IC50 (METTL1/WDR4; [2]) [nM] | IC50 (METTL1/WDR4) [nM]
1 | Nc1ncnc2c1c([C@@H]1CCCO1)cn2-c1cncc(COc2ccc3ccc(N4CCC4)nc3c2)c1 [Compound I-145] | < 10 | < 1000 | < 1000 |  |  |  | 
2 | Nc1ncnc2c1c(Cl)cn2-c1cncc(COc2ccc3ccc(NCC4CC4)nc3c2)c1 [Compound I-55] | 100 to 1000 | 1000 to 10000 |  | > 1000 | > 1000 |  | 
3 | CCc1cc(N(C)CCN(C)C)c2ccc(CCc3cncc(-n4cc(-c5ccn(C)n5)c5c(N)ncnc54)c3)cc2n1 [Compound I-155] | < 10 | < 1000 | 1000 to 10000 |  |  |  | 
4 | CCc1cc(N(C)CC2CC2)c2ccc(OCc3cncc(-n4cc(-c5ccn(C)n5)c5c(N)ncnc54)c3)cc2n1 [Compound I-137] | < 10 | < 1000 | 1000 to 10000 |  |  |  | 
5 | CNc1ccc2ccc(OCc3cncc(-n4cc(Cl)c5c(N)ncnc54)n3)cc2n1 [Compound I-20] | < 10 |  | 1000 to 10000 | > 1000 |  | > 1000 | 
6 | CC(C)c1cc(N2CCC2)c2ccc(OCc3cncc(-n4ccc5c(N)ncnc54)c3)cc2n1 [Compound I-99] | < 10 | < 1000 |  | > 1000 |  | > 1000 | 
7 | CNc1ccc2ccc(OCc3cncc(-n4cc(C5CCCO5)c5c(N)ncnc54)c3)cc2n1 (centres unmarked) [Compound I-97] | < 10 | < 1000 |  | > 1000 |  |  | > 1000
8 | CNc1ccc2ccc(OCc3cncc(-n4cc(-c5ccc(CNCCS(C)(=O)=O)o5)c5c(N)ncnc54)c3)cc2n1 [Compound I-236] | < 10 | 1000 to 10000 | 1000 to 10000 |  |  |  | 
9 | CCc1cc(N2CCCC2)c2ccc(OCc3cncc(-n4ccc5c(N)ncnc54)c3)cc2n1 [Compound I-109] | < 10 | < 1000 |  | > 1000 |  |  | 
10 | Cn1ccc(-c2cn(-c3cncc(COc4ccc5ccc(N6CC(F)C6)nc5c4)c3)c3ncnc(N)c23)n1 [Compound I-192] | < 10 | < 1000 |  | > 1000 |  |  | 
11 | CCc1cc(NCCN(C)C)c2c(F)cc(CCc3cncc(-n4cc(-c5ccn(C)n5)c5c(N)ncnc54)c3)cc2n1 [Compound I-227] | < 10 | < 1000 | 1000 to 10000 |  |  |  | 
12 | Cn1ccc(-c2cn(-c3cncc(COc4ccc5ccc(N6CC(O)C6)nc5c4)c3)c3ncnc(N)c23)n1 [Compound I-193] | < 10 | 1000 to 10000 |  | > 1000 |  |  | 
13 | CS(=O)(=O)c1cn(-c2cncc(COc3ccc4ccc(N5CCC5)nc4c3)c2)c2ncnc(N)c12 [Compound I-185] | 10 to 100 | 1000 to 10000 |  | > 1000 |  |  | 
14 | CCc1cc(NCCCN(C)C)c2ccc(OCc3cncc(-n4cc(-c5ccn(C)n5)c5c(N)ncnc54)c3)cc2n1 [Compound I-170] | < 10 | < 1000 |  | > 1000 |  |  | 
15 | CCc1cc(N)c2ccc(OCc3cncc(-n4cc(Cl)c5c(N)ncnc54)c3)cc2n1 [Compound I-52] | < 10 |  | ≥ 10000 | > 1000 | > 1000 |  | 
16 | Cc1cc(N)c2ccc(OCc3cncc(-n4ccc5c(N)ncnc54)c3)cc2n1 [Compound I-48] | 100 to 1000 | ≥ 10000 |  | > 1000 | > 1000 |  | 
17 | CCc1cc(NCCN(C)C)c2c(F)cc(OCc3cncc(-n4cc(-c5ccn(C)n5)c5c(N)ncnc54)c3)cc2n1 [Compound I-230] | < 10 | 1000 to 10000 | ≥ 10000 |  |  |  | 
18 | CC(=O)c1cn(-c2cncc(COc3ccc4ccc(N5CCC5)nc4c3)c2)c2ncnc(N)c12 [Compound I-238] | < 10 | ≥ 10000 |  | > 1000 |  |  | 
19 | CCc1cc(N(C)C2CC2)c2ccc(OCc3cncc(-n4cc(-c5ccn(C)n5)c5c(N)ncnc54)c3)cc2n1 [Compound I-136] | < 10 | < 1000 | 1000 to 10000 |  |  |  | 
20 | CCc1cc(NCCOC)c2ncc(OCc3cncc(-n4cc(-c5ccn(C)n5)c5c(N)ncnc54)c3)cc2n1 [Compound I-138] | < 10 | < 1000 | 1000 to 10000 |  |  |  | 
21 | CNc1ccc2ccc(CCc3cncc(-n4cc(C5CCCC5)c5c(N)ncnc54)n3)cc2n1 [Compound I-110] | < 10 |  | 1000 to 10000 | > 1000 | > 1000 | > 1000 | 
22 | CCc1cc(NCCOC)c2ccc(OCc3cncc(-n4cc(COC)c5c(N)ncnc54)c3)cc2n1 [Compound I-231] | < 10 | < 1000 |  | > 1000 |  |  | 
23 | CCc1cc(NC)c2ccc(OCc3cncc(-n4cc(-c5ccn(C)n5)c5c(N)ncnc54)c3)cc2n1 [Compound I-135] | < 10 | < 1000 | 1000 to 10000 |  |  |  | 
24 | CCc1cc(N(C)C)c2ccc(OCc3cncc(-n4cc(-c5ccn(C)n5)c5c(N)ncnc54)c3)cc2n1 [Compound I-147] | < 10 | < 1000 | ≥ 10000 |  |  |  | 
25 | CN(CCO)c1ccc2ccc(OCc3cncc(-n4cc(-c5ccn(C)n5)c5c(N)ncnc54)c3)cc2n1 [Compound I-169] | < 10 | < 1000 |  | > 1000 |  |  | 

Reference: patent publication US20220372040A1, “METTL3 MODULATORS” (Accent Therapeutics, Inc., priority 2020, published 2022)
